Assay results as given in ChEMBL document CHEMBL3091385, “Radionuclide labeling and evaluation of candidate radioligands for PET imaging of histone deacetylase in the brain” (Bioorg Med Chem Lett, 2013).

Experiments:
[1] = Lipophilicity, log D of the compound at pH 7.4; format: physicochemical; conditions: buffer
[2] = Drug uptake in iv dosed baboon putamen after 90 mins by PET analysis; format: ADME, organism-based; conditions: papio anubis, in vivo
[3] = Drug uptake in iv dosed baboon heart after 90 mins by PET analysis in presence of SAHA; format: ADME, organism-based; conditions: papio anubis, in vivo
[4] = Protein binding in plasma (unknown origin); format: ADME, cell-free; conditions: unidentified, read-out: PPB (converted)
[5] = Drug uptake in iv dosed baboon heart after 90 mins by PET analysis; format: ADME, organism-based; conditions: papio anubis, in vivo
[6] = Drug uptake in iv dosed baboon kidney after 90 mins by PET analysis in presence of SAHA; format: ADME, organism-based; conditions: papio anubis, in vivo
[7] = tested on: Brain; assay: Drug uptake in iv dosed baboon brain after 90 mins by PET analysis; format: ADME, organism-based; conditions: papio anubis, in vivo
[8] = Drug uptake in iv dosed baboon cerebellum after 90 mins by PET analysis; format: ADME, organism-based; conditions: papio anubis, in vivo
[9] = Drug uptake in iv dosed baboon liver after 90 mins by PET analysis in presence of SAHA; format: ADME, organism-based; conditions: papio anubis, in vivo
[10] = Drug uptake in iv dosed baboon liver after 90 mins by PET analysis; format: ADME, organism-based; conditions: papio anubis, in vivo
[11] = Drug uptake in iv dosed baboon caudate after 90 mins by PET analysis; format: ADME, organism-based; conditions: papio anubis, in vivo
[12] = tested on: Brain; assay: Drug uptake in iv dosed baboon whole brain after 90 mins by PET analysis; format: ADME, organism-based; conditions: papio anubis, in vivo
[13] = Drug uptake in iv dosed baboon kidney after 90 mins by PET analysis; format: ADME, organism-based; conditions: papio anubis, in vivo

logD ([1]; read-out: logD) | Drug uptake [2] | Drug uptake [3] | fraction unbound [4] | Drug uptake [5] | Drug uptake [6] | Drug uptake [7] | Drug uptake [8] | Drug uptake [9] | Drug uptake [10] | Drug uptake [11] | Drug uptake [12] | Drug uptake [13] | SMILES | logD [1]
1.79 |  |  |  |  |  |  |  |  |  |  |  |  | Nc1ccccc1NC(=O)c1ccc(CN[11C](=O)OCc2cccnc2)cc1 | 
 |  |  |  |  |  |  |  |  |  |  |  |  | O=C(C[18F])NCCCCCC(=O)Nc1ccccc1 | 1.39
0.5 | Active | Active | 0.085 | Active | Active | Active | Active | Active | Active | Active | Active | Active | [11CH3]Oc1ccc(C(=O)CCCCCCC(=O)NO)cc1 | 
